Assay results published in patent US20240287138A1, “CYCLIC PEPTIDES FOR INHIBITING TNF RECEPTOR 1 ACTIVITY” (Merck Sharp & Dohme LLC, priority 2023, published 2024).
Numbered stars: 1 amine (or outer) side, 2 acyl side, 3 side chain; on linkers, the order of the positions; unused ones are H or OH. Square brackets hold non-standard residues; d marks the D form. Peptide text beside a SMILES is read from it. Trp(βS-Me,7-OMe) = COc1cccc2c([C@H](C)[C@H](N)C(=O)O)c[nH]c12; dPro(trans-4-NMe2) = CN(C)[C@@H]1CN[C@@H](C(=O)O)C1; Trp(7-Br) = N[C@@H](Cc1c[nH]c2c(Br)cccc12)C(=O)O; Trp(7-CN) = N#Cc1cccc2c(C[C@H](N)C(=O)O)c[nH]c12; Phe(3-CONH2) = NC(=O)c1cccc(C[C@H](N)C(=O)O)c1; Phe(4-CONH2) = NC(=O)c1ccc(C[C@H](N)C(=O)O)cc1; Phe(4-COOH) = N[C@@H](Cc1ccc(C(=O)O)cc1)C(=O)O; Trp(7-aza) = N[C@@H](Cc1c[nH]c2ncccc12)C(=O)O; dPro(trans-4-F) = O=C(O)[C@H]1C[C@H](F)CN1; Pip(5R-OH) = O=C(O)[C@@H]1CC[C@@H](O)CN1; X1 = O=C([C@@H]1CC[C@H](N[*:1])C1)[*:2]; X31 = O=C(CN(CCc1nnco1)[*:1])[*:2]; Pip(4-aza) = O=C(O)[C@@H]1CNCCN1; 4Pal = N[C@@H](Cc1ccncc1)C(=O)O; dHyp = O=C(O)[C@H]1C[C@H](O)CN1; aThr = C[C@H](O)[C@H](N)C(=O)O; Ahp(2) = CCCCC[C@H](N)C(=O)O; αMeS = C[C@](N)(CO)C(=O)O; Nle = CCCC[C@H](N)C(=O)O; Sar = CNCC(=O)O

How the values were obtained:
human TNFR2 ECD protein = molecular target: T1, human TNFR2 ECD protein (Homo sapiens, UniProt P20333); assay: SPR off-target binding (selectivity) to human TNFR2 ECD
T1 construct: HRV 3C protease cleavage site (C); 6His (C, cleaved yes); made in house; host or cells: Sf21 insect cells (baculovirus), secreted
T1 sequence (P20333 23-257): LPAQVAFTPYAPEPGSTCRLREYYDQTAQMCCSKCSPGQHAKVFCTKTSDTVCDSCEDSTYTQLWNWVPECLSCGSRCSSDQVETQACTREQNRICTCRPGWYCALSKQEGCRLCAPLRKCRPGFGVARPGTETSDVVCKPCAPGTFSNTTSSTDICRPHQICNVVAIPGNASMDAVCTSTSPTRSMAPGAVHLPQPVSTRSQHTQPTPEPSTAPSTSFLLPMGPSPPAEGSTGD
In short: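 Biotinylated human TNFR1 or TNFR2 ECD (C-terminal Avi-tag, Sf21-expressed) captured on a regenerable streptavidin chip; peptide analytes flowed in 10 mM HEPES pH 7.4, 150 mM NaCl, 3 mM EDTA, 0.05% P20, 2% DMSO. kon and koff measured; affinity calculated from the rate constants.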

[1] = molecular target: T2, human soluble TNFR1 (sTNFR1) (Homo sapiens, UniProt P19438); assay: Human sTNFR1-peptide displacement assay (LanthaScreen Eu TR-FRET binding assay)
T2 construct: made in house; host or cells: Sf21 (baculovirus)
T2 sequence (P19438 with tags, fused parts or gaps): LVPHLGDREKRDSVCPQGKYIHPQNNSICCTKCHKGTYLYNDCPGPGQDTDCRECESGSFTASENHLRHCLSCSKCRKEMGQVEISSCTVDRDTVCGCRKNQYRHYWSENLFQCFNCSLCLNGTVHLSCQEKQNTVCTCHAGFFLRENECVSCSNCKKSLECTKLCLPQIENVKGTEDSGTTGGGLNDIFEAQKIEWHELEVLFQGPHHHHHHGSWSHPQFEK
In short: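 Readout is the 665/615 nm TR-FRET ratio (Eu anti-His donor, streptavidin-Alexa647 acceptor), normalized to DMSO and saturating displacer, fit by Morrison-based five-parameter logistic for Kd^app. His-tagged sTNFR1 (1-211) prebound to 100 nM biotinylated peptide SEQ ID NO.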

Compound | Kd (human TNFR2 ECD protein) | Kd [1]
CCCCC[C@@H]1NC(=O)[C@@H]2CC[C@@H](C2)NC(=O)[C@H]([C@@H](C)c2c[nH]c3c(OC)cccc23)NC(=O)CN(C)C(=O)[C@H](Cc2cccc(C(N)=O)c2)NC(=O)[C@H](Cc2ccc(C(N)=O)cc2)NC(=O)[C@](C)(CO)NC(=O)[C@H](Cc2c[nH]c3c(Br)cccc23)NC(=O)[C@H](Cc2ccc(C(=O)O)cc2)NC(=O)[C@H](CC(N)=O)NC(=O)[C@H]2C[C@H](O)CN2C(=O)[C@H](Cc2c[nH]c3ccccc23)NC(=O)[C@@H]2CNCCN2C(=O)[C@H](Cc2ccncc2)NC1=O [SEQ ID NO. 109] (cyclo([4Pal][Pip(4-aza)]W[dHyp]N[Phe(4-COOH)][Trp(7-Br)][αMeS][Phe(4-CONH2)][Phe(3-CONH2)][Sar][Trp(βS-Me,7-OMe)][X1][Ahp(2)])) | > 1000 nM | 0.11 nM
CCCC[C@@H]1NC(=O)[C@@H]2CC[C@@H](C2)NC(=O)[C@H]([C@@H](C)c2c[nH]c3c(OC)cccc23)NC(=O)CN(C)C(=O)[C@H](Cc2ccc(C(N)=O)cc2)NC(=O)[C@H](Cc2ccc(C(N)=O)cc2)NC(=O)[C@](C)(CO)NC(=O)[C@H](Cc2c[nH]c3c(C#N)cccc23)NC(=O)[C@H](Cc2ccc(C(=O)O)cc2)NC(=O)[C@H](CC(N)=O)NC(=O)[C@H]2C[C@H](F)CN2C(=O)[C@H](Cc2c[nH]c3ccccc23)NC(=O)[C@@H]2CC[C@@H](O)CN2C(=O)[C@H](Cc2ccncc2)NC1=O [SEQ ID NO. 114] (cyclo([4Pal][Pip(5R-OH)]W[dPro(trans-4-F)]N[Phe(4-COOH)][Trp(7-CN)][αMeS][Phe(4-CONH2)][Phe(4-CONH2)][Sar][Trp(βS-Me,7-OMe)][X1][Nle])) | > 1000 nM | 0.02 nM
CCCC[C@@H]1NC(=O)[C@@H]2CC[C@@H](C2)NC(=O)[C@H]([C@@H](C)c2c[nH]c3c(OC)cccc23)NC(=O)CN(C)C(=O)[C@H](Cc2ccc(C(=O)O)cc2)NC(=O)[C@H](Cc2ccc(C(N)=O)cc2)NC(=O)[C@](C)(CO)NC(=O)[C@H](Cc2c[nH]c3c(C#N)cccc23)NC(=O)[C@H](Cc2ccncc2)NC(=O)[C@H](CC(N)=O)NC(=O)CN(CCc2nnco2)C(=O)[C@H](Cc2c[nH]c3ncccc23)NC(=O)[C@@H]2CC[C@@H](O)CN2C(=O)[C@H](Cc2ccncc2)NC1=O [SEQ ID NO. 121] (cyclo([4Pal][Trp(7-CN)][αMeS][Phe(4-CONH2)][Phe(4-COOH)][Sar][Trp(βS-Me,7-OMe)][X1][Nle][4Pal][Pip(5R-OH)][Trp(7-aza)][X31]N)) | > 1000 nM | 0.07 nM
CCCC[C@@H]1NC(=O)[C@@H]2CC[C@@H](C2)NC(=O)[C@H]([C@@H](C)c2c[nH]c3c(OC)cccc23)NC(=O)CN(C)C(=O)[C@H](Cc2ccc(C(N)=O)cc2)NC(=O)[C@H](Cc2ccc(C(N)=O)cc2)NC(=O)[C@](C)(CO)NC(=O)[C@H](Cc2c[nH]c3c(C#N)cccc23)NC(=O)[C@H](Cc2ccc(C(=O)O)cc2)NC(=O)[C@H]([C@H](C)O)NC(=O)[C@H]2C[C@H](O)CN2C(=O)[C@H](Cc2c[nH]c3ncccc23)NC(=O)[C@@H]2CC[C@@H](O)CN2C(=O)[C@H](Cc2ccncc2)NC1=O [SEQ ID NO. 122] (cyclo([4Pal][Pip(5R-OH)][Trp(7-aza)][dHyp][aThr][Phe(4-COOH)][Trp(7-CN)][αMeS][Phe(4-CONH2)][Phe(4-CONH2)][Sar][Trp(βS-Me,7-OMe)][X1][Nle])) | > 1000 nM | 0.08 nM
CCCCC[C@@H]1NC(=O)[C@@H]2CC[C@@H](C2)NC(=O)[C@H]([C@@H](C)c2c[nH]c3c(OC)cccc23)NC(=O)CN(C)C(=O)[C@H](Cc2cccc(C(N)=O)c2)NC(=O)[C@H](Cc2ccc(C(N)=O)cc2)NC(=O)[C@](C)(CO)NC(=O)[C@H](Cc2c[nH]c3c(C#N)cccc23)NC(=O)[C@H](Cc2ccc(C(=O)O)cc2)NC(=O)[C@H](CC(N)=O)NC(=O)[C@H]2C[C@H](N(C)C)CN2C(=O)[C@H](Cc2c[nH]c3ccccc23)NC(=O)[C@@H]2CC[C@@H](O)CN2C(=O)[C@H](Cc2ccncc2)NC1=O [SEQ ID NO. 128] (cyclo([4Pal][Pip(5R-OH)]W[dPro(trans-4-NMe2)]N[Phe(4-COOH)][Trp(7-CN)][αMeS][Phe(4-CONH2)][Phe(3-CONH2)][Sar][Trp(βS-Me,7-OMe)][X1][Ahp(2)])) | > 1000 nM | 0.09 nM
